# Measured values reported in PMC12040169 (PLOS Biology, 2025).
# Experiment: in vitro
# Settings: human, hela cells, % viability
row,Structure (SMILES),"viability at 28.5 h, 10 µM"
1,O=C(O)c1ccc(S(=O)(=O)NC2CCS(=O)(=O)C2)cc1 (centres unmarked) [CBK262477],110%
2,Cc1ccc(C2(CN3CCC(NC(=O)c4cc[nH]n4)CC3)CC2)cc1 [CBK285360],97.8%
3,COCCOCN1C(=O)CC2(C1=O)C(=O)N(Cc1ccc(OC(F)(F)F)cc1)c1ccccc12 (centres unmarked) [CBK075942],94.2%
4,N=C1NC(=O)/C(=C\c2cccc(C(=O)O)c2)S1 [CBK264832],97.6%
5,COc1ccc(/C=N/Nc2nc(OC)nc(N3CCOCC3)n2)cc1 [CBK025751],91.6%
6,COc1ccc(CN2CCCN(c3nccc(OCc4cc(C)on4)n3)CC2)cc1 [CBK083911],100%
7,CC(=O)Nc1ccc(-c2nc3c4ccccc4c4ccc(I)cc4c3[nH]2)cc1 [CBK262667],100%
8,CN1C(=O)COc2ccccc2C/C=C/C[C@@H]2[C@H]1CCCN2S(=O)(=O)N1CCOCC1 [CBK292063],90.6%
9,CCCNC(=O)Cn1nc(CC)n2c(cc3ccsc32)c1=O [CBK284130],91.5%
10,CS(=O)(=O)c1ccc(-c2ccc(C(=O)N3CCN(C(=O)c4ccco4)CC3)cn2)cc1 [CBK160190],95.2%
11,COc1cccc(NC(=O)CN2CCC(NC(=O)c3cccs3)CC2)c1 [CBK305800],96.3%
12,Nn1cnnc1SC1CCCCC1NS(=O)(=O)c1ccccc1 (centres unmarked) [CBK266361],95.7%
13,Cc1ccc(OCCCSc2nnc(N)[nH]2)cc1 [CBK269215A],89.1%
14,CCc1nc2c(N3CCCn4nc(C(O)C5CC5)cc4C3)ncnc2o1 (centres unmarked) [CBK307543],78.6%
15,Cc1cc(NS(=O)(=O)c2ccc(C(C)C)cc2)n[nH]1 [CBK044646],106%
16,Cc1nc(-c2n[nH]cc2-c2ccccc2F)sc1CCN [CBK281578],102%
17,C=CCN1C(=O)CC2(C1=O)C(=O)N(CCCN1C(=O)c3ccccc3C1=O)c1ccc(Cl)cc12 (centres unmarked) [CBK075443],92.6%
18,Cc1cc(O)ccc1Nc1cc(-c2cc3ccccc3s2)ncn1 [CBK091057],87%
19,CC(=O)Nc1ccc(OCC(O)Cn2c(CO)nc3ccccc32)cc1 (centres unmarked) [CBK304549],81.3%
20,N#Cc1cccc(OCC(=O)NCC2(N3CCOCC3)CCSC2)c1 (centres unmarked) [CBK305685],86.3%
21,CC(C)NC(=O)N1CCCC2(C1)NCCc1c2[nH]c2ccccc12 (centres unmarked) [CBK046952],86.7%
22,c1ccc(COc2ccccc2CNCCN2CCOCC2)cc1 [CBK278212C],90.7%
23,O=C(O)c1cccc2c1C(=O)N(c1ccccc1)C2 [CBK101054],91.4%

row,Structure (SMILES),"viability at 28.5 h, 10 µM"
1,CC(=O)Nc1ccc([C@@H](O)[C@H]2COCC(=O)N2C)cc1 [CBK289059],97.7%
2,FC(F)(F)Oc1ccc(-c2cncc(N3CCN(c4ccncc4)CC3)n2)cc1 [CBK059230C],88.9%
3,CC1CCN(c2ccc(S(=O)(=O)Nc3cc(C(=O)O)cc(C(=O)O)c3)cc2[N+](=O)[O-])CC1 [CBK263886],94.8%
4,Cc1ccc(Cc2cnc(NC(=O)NC3CCOC(C)(C)C3)s2)cc1F (centres unmarked) [CBK304139],92.2%
5,O=C(Cn1c(NCCO)nc2ccccc21)C12CC3CC(CC(C3)C1)C2 [CBK262129B],85.4%
6,CC1=NN(c2nc(-c3ccc(Br)cc3)cs2)C(=O)C1/N=N/c1ccccc1C(=O)O (centres unmarked) [CBK262440],91.8%
7,CSCCC(=O)NCCc1c[nH]c2ccc(Cl)cc12 [CBK159775],95.6%
8,COC(=O)c1ccc(OCc2nnn[nH]2)cc1 [CBK269544],88.7%
9,O=C(C(OCC(F)(F)F)c1ccccc1)N1CCN(c2nccs2)CC1 (centres unmarked) [CBK298299],91.9%
10,Cc1nc(C2CCN(C(=O)CCc3ccno3)CC2)c2sccn12 [CBK282239],93.1%
11,O=C(Nc1nc(-c2ccncc2)cs1)C1COc2ccccc2O1 (centres unmarked) [CBK287370],96.7%
12,Oc1c(-c2cccc(C(F)(F)F)c2)cnc2cccnc12 [CBK081290],87.1%
13,Cc1noc(C)c1C(=O)N1CCCCCC1c1nn(C)cc1Cl (centres unmarked) [CBK285106],101%
14,CC(C)(C)OC(=O)N1Cc2ccccc2C[C@H]1C(=O)N1CCC(C(=O)O)CC1 [CBK286761],94.1%
15,Cc1cc2ncn(CC(=O)N3CCc4ccccc43)c2cc1C [CBK200270],114%
16,C=CCn1c(-c2sc(NC(=O)c3ccc(CNC(=O)NC(C)C)cc3)nc2C)n[nH]c1=S [CBK297764],111%
17,COc1ccc(C(C)C)cc1-c1nccnc1NCCc1c[nH]c2ccccc12 [CBK036650],109%
18,COC(=O)CCc1ccc(S(=O)(=O)N2CCCN(Cc3ccc(Cl)c(C(F)(F)F)c3)CC2)cc1 [CBK062995],102%
19,c1cnc(N2CCCC2)c(OC2CCNC2)n1 (centres unmarked) [CBK115284],98.3%
20,O=C(CCc1cccnc1)NC(Cc1ccsc1)c1nccs1 (centres unmarked) [CBK284665],99.5%
21,Cc1ccccc1-n1c(SC(C)C)nc2sc3c(c2c1=O)CC(C)(C)OC3 [CBK091874],91.2%
22,CSc1nc2ccc(NS(=O)(=O)c3ccc(Cl)c(C(=O)O)c3)cc2s1 [CBK297541],82.6%
23,O=C(O)c1ccc(NS(=O)(=O)c2ccc3c(c2)OCCO3)cc1 [CBK296129],108%

row,Structure (SMILES),"viability at 28.5 h, 10 µM"
1,COc1c(S(=O)(=O)N2CCN(Cc3ccc4c(c3)OCO4)CC2)ccc(Cl)c1Cl [CBK074423],91.8%
2,COc1cc(/C=C/C(=O)NCc2ccc(C(=O)O)cc2)ccc1O [CBK286728],86.4%
3,CN(CC(=O)O)C(=O)c1ccc(S(=O)(=O)N2CCCC2)cc1 [CBK265724],91.8%
4,Cc1cn(S(=O)(=O)c2ccc(Br)cc2)cn1 [CBK026488],97.3%
5,OCc1ccc(-c2cc(NCc3cccs3)n3nccc3n2)cc1 [CBK037046],106%
6,CC(Oc1cccc2ccccc12)C(=O)NN (centres unmarked) [CBK261209],112%
7,Cc1cc(-c2sc(N)nc2-c2cccs2)on1 [CBK284492],87.9%
8,CC(=O)C1=C(O)C(=O)N(CCCC(=O)O)C1c1ccc(Br)cc1 (centres unmarked) [CBK286784],115%
9,O=C(Nc1ccc2nc(CN3CCOCC3)[nH]c2c1)C1CCCCC1 [CBK305728],80.5%
10,Cc1nn(Cc2cccnc2)c(=O)n2cccc12 [CBK283848],105%
11,Cc1cc(C)n2nc(CCCOC(=O)c3ccn(C(C)C)n3)nc2n1 [CBK305272],112%
12,COc1ncc(-c2cncc(N3CCN(CCO)CC3)n2)c(OC)n1 [CBK065146],84.8%
13,C=CCN(Cc1nc(-c2ccccc2)no1)C(=O)Nc1ccc(C)cc1 [CBK269859],103%
14,c1csc(CNc2cncc(-c3ccncc3)n2)c1 [CBK065238],97.3%
15,O=C(c1ccccc1)N1CCC(c2cccc(Cc3ccccc3Cl)n2)CC1 [CBK286085],88.2%
16,CCOC(=O)C1=C(Nc2ccc([N+](=O)[O-])cc2)S/C(=C\c2ccc(O)c(OC)c2)C1=O [CBK263873],89.3%
17,COc1ccc(S(=O)(=O)Nc2ccccc2C(=O)O)cc1OC [CBK042368],85.7%
18,COCC(=O)N1CC[C@H](c2nnc(-c3ccc(C)cc3)o2)C1 [CBK289410],114%
19,CC(Oc1ccc(Cl)cc1Cl)C(=O)O/N=C(\N)c1ccccn1 (centres unmarked) [CBK264673],100%
20,Nc1nc(N)n(-c2ccccc2)n1 [CBK026515],104%
21,CCCCc1noc(C(C)S(=O)(=O)Cc2csc(CCCC)n2)n1 (centres unmarked) [CBK305431],110%
22,O=C(CSCc1ccccc1)Nc1ccc(O)cc1C(=O)O [CBK126817],103%
23,Cc1ccccc1Nc1nc(N)nc(CN2CCOC3CCCC32)n1 (centres unmarked) [CBK305181],97.6%

row,Structure (SMILES),"viability at 28.5 h, 10 µM"
1,COc1cccc(C(=O)N2CCC(NC(=O)c3ccc(C(F)(F)F)cc3)CC2)c1 [CBK155022],104%
2,Cc1ccccc1Nc1n[nH]c(=S)s1 [CBK015808],111%
3,COc1ccccc1NC(=O)C1CN(S(=O)(=O)c2ccccc2)CCN1S(=O)(=O)c1ccccc1 (centres unmarked) [CBK262673],93.5%
4,Nc1ncnc2c1nc1n2[C@@H]2O[C@H](C1)[C@H](O)C2O (some centres unmarked) [CBK201224],108%
5,NS(=O)(=O)c1ccc2nc(NC(=O)c3ccc(N4C(=O)CCC4=O)cc3)sc2c1 [CBK291192],117%
6,CC(C)(C)NS(=O)(=O)c1ccc(NC(=O)c2cc(-c3ccccn3)nc3c(Cl)cccc23)cc1 [CBK267783],99.6%
7,O=C1CC(Cl)Sc2sc3ccccc3c21 (centres unmarked) [CBK006551],86.6%
8,CC(NC(=O)c1cnc(-c2cccc(C(F)(F)F)c2)c(-c2ccncc2)c1)c1ccc(F)cc1 (centres unmarked) [CBK037556],99.7%
9,O=C(NCC1CCCO1)C1CCN(C(=O)c2cccc(F)c2)CC1 (centres unmarked) [CBK304633],90.5%
10,CCCC(=O)N1CCC(Cc2ccc(-c3cccc(C)c3)cc2)(C(=O)NC)CC1 [CBK285786],104%
11,CC1(C)CC(=O)c2cnc3cc(-c4ccco4)nn3c2C1 [CBK283142],102%
12,Cc1cc2[nH]c(=O)oc2cc1S(=O)(=O)NCCN1CCCCC1CO (centres unmarked) [CBK307307],80.9%
13,C(=C\c1nccnc1OCc1cccs1)/c1ccccc1 [CBK106883],112%
14,c1ccc(CSc2nnc(COc3cccc4ccccc34)n2Cc2ccccc2)cc1 [CBK267215],116%
15,CC(=O)NCCSc1nccnc1N1CCCC1 [CBK105619],91.7%
16,FC(F)(F)c1cccc(CSc2nc3ccccc3nc2N2CCCC2)c1 [CBK107190],91.5%
17,CC(=O)Nc1ccc(S(=O)(=O)N2CCN(c3ccc(C(F)(F)F)cc3[N+](=O)[O-])CC2)cc1 [CBK264293],93.9%
18,OCCc1ccc(Oc2ncc(C(F)(F)F)cc2Cl)cc1 [CBK161643],94.6%
19,COc1cc(F)cc(OC2CCNCC2)c1NC(=O)Cc1cn(C)c2ccccc12 [CBK050245T],105%
20,COc1cccc(NC(=O)N[C@H]2[C@H](O)[C@@H](N3CCOCC3)[C@@H]3OC[C@H]2O3)c1 [CBK288821],109%
